Consider two molecules from patent US20110124607A1, “COMPOSITION FOR REGULATION CELLULAR SENESCENCE COMPRISING LYSOPHOSPHATIDIC ACID AND INHIBITOR OF ADENYLYL CYCLASE AS ACTIVE INGREDIENTS” (priority 2008, published 2011).

Holding throughout (type): cell-based, human
One assay concerns LKB1. Nature of the assay: Immuno-blotting of LKB1. The following applies: 1, 2, 4 days. The protocol: (§1) FIG. 8 is a set of photographs illustrating the effects of LPA and ACI on LKB1 phosphorylation in senescent cells. Precisely, sub-cultured young cells (PD 18) and senescent cells (PD64) were treated with 30 μM of LPA or 300 μM of LPA and ACI singly or together. After culturing the cells for 1, 2, and 4 days, proteins were extracted from the cultured cells and the levels of LKB1, p-Ser431-LKB1 and β-actin were quantified by immuno-blotting using 45 μg of the protein.
To analyse protein expression, human fibroblasts were lysed in cold lysis buffer (25 mM Hepes, pH 8.0, 150 mM NaCl, 1 mM EDTA, 1 mM Na3VO4, 1 mM NaF, 1% Triton X-100 and protease inhibitors), followed by centrifugation at 4° C. at 9,000 rpm for 10 minutes to obtain supernatant. Protein in the extract was quantified […]. SDS-PAGE electrophoresis was performed with equal amount of the protein (45 μg) to separate. The separated protein was transferred onto NC membrane from the electrophoresis gel. Non-specific protein binding was blocked by blocking the blot (transferred NC membrane) using TTBS […] containing 5% skim milk for one hour. Then, antigen-antibody reaction was induced with diluted primary antibody at 4° C. for overnight. […]

A further assay deals with p-Ser431-LKB1. The assay is described as follows: Immuno-blotting of p-Ser431-LKB1. The following applies: 30 μM LPA, 300 μM ACI, 1, 2, 4 days. The protocol:
as §1
To analyse protein expression, human fibroblasts were lysed in cold lysis buffer (25 mM Hepes, pH 8.0, 150 mM NaCl, 1 mM EDTA, 1 mM Na3VO4, 1 mM NaF, 1% Triton X-100 and protease inhibitors), followed by centrifugation at 4° C. at 9,000 rpm for 10 minutes to obtain supernatant. Protein in the extract was quantified […]. SDS-PAGE electrophoresis was performed with equal amount of the protein (45 μg) to separate. The separated protein was transferred onto NC membrane from the electrophoresis gel. Non-specific protein binding was blocked by blocking the blot (transferred NC membrane) using TTBS […] containing 5% skim milk for one hour. Then, antigen-antibody reaction was induced with diluted primary antibody at 4° C. for overnight. The blot was washed with TTBS, followed by reaction with horseradish peroxidase conjugated anti-IgGs diluted in TTBS containing 5% skim milk (1:5000) at room temperature for one hour. The blot was washed again with TTBS to eliminate non-specific binding of antigen-antibody. Photographs were developed/printed on X-ray film (Kodak) using ECL kit (Pierce) containing peroxidase substrate to identify each protein.
It has been recently discovered that the tumor suppressor gene LKB1 is a member of AMPKK family (Hawley et al., 2003; Shaw et al., 2004; Woods et al., 2003a). Ser431-LKB1 phosphorylation promotes cell growth in the activated form of LKB1 (Sapkota et al., 2001). So, in this experiment, it was examined what effect the single treatment or co-treatment of LPA and ACI has on the expressions of p-Ser431-LKB1, LKB1 and β-actin (FIG. 8). […] Meanwhile, LKB1 expression therein was not changed.

In a further assay the test system is p-Thr172-AMPKα. The assay is described as follows: Immuno-blotting of p-Thr172-AMPKα. Particulars: for p-Thr172-AMPKα expression after suppressing PKA: senescent cells pre-treated with 10 mM PKA inhibitor Rp-cAMP for one hour; for Thr172-AMPKα phosphorylation: 30 μM LPA, 300 μM ACI, 10 mM AMPKI, 10 mM AICAR, up to day 4. How it is done: (A) and (B): Young and senescent cells were serum-starved for 2 days, followed by treatment with 10 mM of AMPK inhibitor […]) or 10 mM of AMPK activator AICAR(B) for 4 days. Proteins were extracted from the treated cells and the levels of AMPKα and p-Thr172-AMPKα, total p53, p-Ser15-p53 and […] measured by immuno-blotting. (C) and (D): Young cells (C) and senescent cells (D) were treated with 10 mM AMPKI or 10 mM AICAR and cultured for 4 days, followed by measurement of cell proliferation by cell counting. At this time, the experiment was repeated three times (p<0.001). (A) and (B) are photographs illustrating the results of immuno-blotting. Precisely, sub-cultured young cells (PD 18: A) and senescent cells (PD 64: B) were treated with 30 μM of LPA […] and ACI singly or together, followed by further culture for 1, 2, and 4 days. Proteins were extracted from the cultured cells and the levels of AMPKα, […] β-actin were quantified by immuno-blotting. (A) and (B) are photographs illustrating the results of immuno-blotting. Precisely, senescent cells (PD 64) were pre-treated with 10 mM of PKA inhibitor Rp-cAMP for one hour, followed by treatment with LPA(A) or ACI(B). After culturing the cells for 1, 2, and 4 days, proteins were extracted from the cultured cells and the levels of AMPKα, […] β-actin were quantified by immuno-blotting using 45 μg of the protein. To analyse protein expression, human fibroblasts were lysed in cold lysis buffer (25 mM Hepes, pH 8.0, 150 mM NaCl, 1 mM EDTA, 1 mM Na3VO4, 1 mM NaF, 1% Triton X-100 and protease inhibitors), followed by centrifugation at 4° C. at 9,000 rpm for 10 minutes to obtain supernatant. Protein in the extract was quantified […]. SDS-PAGE electrophoresis was performed with equal amount of the protein (45 μg) to separate. The separated protein was transferred onto NC membrane from the electrophoresis gel. Non-specific protein binding was blocked by blocking the blot (transferred NC membrane) using TTBS […] containing 5% skim milk for one hour. Then, antigen-antibody reaction was induced with diluted primary antibody at 4° C. for overnight. The blot was washed with TTBS, followed by reaction with horseradish peroxidase conjugated anti-IgGs diluted in TTBS containing 5% skim milk (1:5000) at room temperature for one hour. The blot was washed again with TTBS to eliminate non-specific binding of antigen-antibody. Photographs were developed/printed on X-ray film (Kodak) using ECL kit (Pierce) containing peroxidase substrate to identify each protein.

`Nc1ncnc2c1ncn2C1CCCO1` (stereo not drawn) [ACI, 9-(tetrahydro-2′-furyl)adenine]: the LKB1 expression entry with LKB1 (senescent cells, 300 μM ACI) is “reduced”. The Ser431-LKB1 phosphorylation entry with p-Ser431-LKB1 (senescent cells) is “reduced”; in the assay with p-Ser431-LKB1 (young cells), “increased”. Also, in the assay with p-Thr172-AMPKα, the “p-Thr172-AMPKα expression after suppressing PKA” value is reported as “not changed”. For the same molecule, the figures for the Thr172-AMPKα phosphorylation entry in the assay on p-Thr172-AMPKα (senescent cells) and with p-Thr172-AMPKα (young cells) were “reduced” and “began to increase”, respectively.

For the molecule lysophosphatidic acid [LPA], the LKB1 expression entry in the assay with LKB1 (young cells, 30 μM LPA) is given as “not changed”. Also, the Ser431-LKB1 phosphorylation result in the assay on p-Ser431-LKB1 (senescent cells) is reported as “gradually increased”; in the assay with p-Ser431-LKB1 (young cells), “gradually reduced”. In addition, the “p-Thr172-AMPKα expression after suppressing PKA” value in the assay with p-Thr172-AMPKα is “not changed at all”. Also, the Thr172-AMPKα phosphorylation result in the assay with p-Thr172-AMPKα (senescent cells) and with p-Thr172-AMPKα (young cells) was “reduced” in each case.
